“Also recorded” adds a separate entry of the source.
Legend:
[1] = tested on: normal human prostate epithelial cells (PrECs); assay: MTT cell viability assay, normal prostate epithelial cells; assay type: cell-based; details: 72 h, up to 10 μM
Description: (§1) Cells and Cell Culture. LNCaP prostate cancer cells were obtained from the American Type Culture Collection (Manassas, Va.). Cells were maintained in 10% fetal bovine serum (FBS)-supplemented RPMI 1640 medium (Invitrogen, Carlsbad, Calif.). Normal human mammary epithelial cells (HMEC) and normal human prostate epithelial cells (PrEC) were obtained from Lonza (Walkersville, Md.) and were maintained in Mammary Epithelial Cell Growth Medium (MEGM) and Prostate Epithelial Cell Growth Medium (PrEGM) (Lonza, Walkersville, Md.), respectively.
(§2) Cell Viability Assay. Cell viability was determined using the 3-(4,5-dimethylthiazol-2-yl)-2,5-diphenyltetrazolium bromide (MTT) assay. Cancer cells were seeded at 5000 cells/well and normal cells were seeded at 8000 cells/well in 96-well plates and incubated in 10% FBS-supplemented medium for 24 h. Cells were then treated with individual agents for 72 h. Drug-containing medium was replaced with medium containing MTT (0.5 mg/mL), followed by incubation at 37° C. for 1 h. After removal of medium, the reduced MTT dye in each well was solubilized in 100 μL of DMSO and absorbance at 570 nm was measured.

[2] = tested on: PC-3 cells; assay: MTT cell viability assay, PC-3; assay type: cell-based; details: Homo sapiens, 72 h, 10% FBS
Method: as §2
(§3) Compound 30 was evaluated for antiproliferative activity in panels of different human cancer cells lines, including those of prostate, breast and pancreatic cancers. In all experiments, cells were treated with a range of concentrations of Compound 30 in the presence of 10% fetal bovine serum (FBS). Cell viability was then determined after 72 h of treatment using the 3-(4,5-dimethylthiazol-2-yl)-2,5-diphenyltetrazolium bromide (MTT) assay. […] It is noteworthy that despite this high antiproliferative potency, normal human prostate epithelial cells (PrECs) were resistant to the cytotoxic effect of Compound 30 even at 10 μM.

[3] = tested on: AsPC1 cells; assay: MTT cell viability assay, AsPC1; assay type: cell-based; details: Homo sapiens, 72 h, 10% FBS
Method: as §2, §3

[4] = tested on: Cal-51 cells; assay: MTT cell viability assay, Cal-51; assay type: cell-based; details: Homo sapiens, 72 h, 10% FBS
Method: as §2, §3

[5] = tested on: LNCaP cells; assay: [3H]2-DG glucose uptake assay in LNCaP cells; assay type: cell-based, human
Method: Screening of the focused compound library to identify lead glucose uptake inhibitors.
Glucose Uptake Assay. LNCaP cells were seeded in six-well plates (3×10^5 cells/well) for 24 h. […] The cells were lysed in […] lysis buffer (10 mM Tris-HCl pH 8.0, 0.1% SDS) and aliquots were taken for measurement of radioactivity using a scintillation counter (Beckman LS6500).

[6] = tested on: BxPC3 cells; assay: MTT cell viability assay, BxPC3; assay type: cell-based; details: Homo sapiens, BXPC-3, 72 h, 10% FBS
Method: as §2, §3

[7] = tested on: human mammary epithelial cells (HMECs); assay: MTT cell viability assay, normal mammary epithelial cells; assay type: cell-based; details: 72 h, up to 10 μM
Description: as §1, §2

[8] = tested on: PANC1 cell line; assay: MTT cell viability assay, PANC1; assay type: cell-based; details: Homo sapiens, PANC-1, 72 h, 10% FBS, read-out: IC50, viability of PANC1 cells
Method: as §2, §3

[9] = tested on: MDAMB-468 cells; assay: MTT cell viability assay, MDAMB-468; assay type: cell-based; details: Homo sapiens, MDA-MB-468, 72 h, 10% FBS
Method: as §2, §3

[10] = tested on: SKBR3 cells; assay: MTT cell viability assay, SKBR3; assay type: cell-based; details: Homo sapiens, SK-BR-3, 72 h, 10% FBS
Method: as §2, §3

[11] = tested on: LNCaP cells; assay: Western blot analysis of energy restriction-associated markers in LNCaP cells; assay type: cell-based, human
Method: FIG. 4. (A) Dose-dependent suppressive effects of compounds 1, 2, 4, 5, 28, and 30 on the viability of LNCaP cells by MTT assays in 10% FBS-containing RPMI 1640 medium after 72 h of drug treatment. Column, mean; bars, SD (N=6). (B) Dose-dependent effect of compound 30 on the viability of normal prostate epithelial cells (PrECs) and human mammary epithelial cells (HMECs) after 72 h of treatment. Column, mean; bars, SD (N=6). (C) Western blot analysis of the dose-dependent effects of compound 30 on markers associated with apoptosis (PARP cleavage), β-TrCP-mediated protein degradation (β-TrCP, cyclin D1, Sp1, and AR), AMPK activation (p-AMPK, p-mTOR, and pp706SK), ER stress (GRP78 and GADD153), and epigenetic activation of KLF6.
Plasmid Construction, Transient Transfection and Immunoblotting. The full length GLUT1, GLUT4, and GLUT9 ORF cDNA clones were purchased from Addgene (Cambridge, Mass.) and GLUT3 ORF cDNA was purchased from Origene Technologies (Rockville, Md.). GLUT1, GLUT3, and GLUT9 were subcloned into the HindIII/SalI sites and GLUT4 was subcloned into the EcoRI/SalI sites of pEGFP-N2 expression vector (Clontech, Palo Alto, Calif.). Transfections were performed by electroporation using Nucleofector kit R of the Amaxa Nucleofector system (Lonza, Walkersville, Md.) according to the manufacturer's protocol. Immunoblotting was performed using cells lysates harvested with SDS lysis buffer (1% SDS, 50 mM Tris-HCl pH 8.0, 10 mM EDTA) containing 1× protease inhibitor cocktail (Sigma) and phosphatase inhibitor and were electrophoresed in 8˜12% SDS polyacrylamide gels and then transferred onto nitrocellulose membranes. After blotting in 5% nonfat dry milk, the membranes were incubated with primary antibodies at 1:1,000 dilution in TBS-Tween 20 overnight at 4° C., and then secondary antibodies conjugated with horseradish peroxidase at 1:5,000 dilution in TBS-Tween 20 for 1 hour at room temperature. Protein bands were visualized on X-ray film using an enhanced chemiluminescence system.

[12] = tested on: MCF-7 cells; assay: MTT cell viability assay, MCF-7; assay type: cell-based; details: Homo sapiens, MCF7, 72 h, 10% FBS
Method: as §2, §3

[13] = tested on: PANC1-GemR (gemcitabine-resistant subline); assay: MTT cell viability assay, PANC1-GemR; assay type: cell-based; details: Homo sapiens, 72 h, 10% FBS, read-out: IC50, viability of PANC1-GemR cells
Method: as §2, §3

[14] = tested on: MDA-MB-231 cells; assay: MTT cell viability assay, MDA-MB-231; assay type: cell-based; details: Homo sapiens, 72 h, 10% FBS
Method: as §2, §3

[15] = tested on: DU-145 cells; assay: MTT cell viability assay, DU-145; assay type: cell-based; details: Homo sapiens, 72 h, 10% FBS
Method: as §2, §3

CC(CN1C(=O)S/C(=C\c2ccc(O)c(C(F)(F)F)c2)C1=O)(CC(F)(F)F)CC(F)(F)F [Compound 30, 5-(4-Hydroxy-3-trifluoromethyl-benzylidene)-3-[4,4,4-trifluoro-2-methyl-2-(2,2,2-trifluoro-ethyl)-butyl]-thiazolidine-2,4-dione]
cytotoxic effect in PrECs [1]: resistant; also recorded: no appreciable cytoxicity; also recorded: no appreciable cytotoxicity | IC50 [2]: 1500 to 1700 nM | IC50 [3]: ~5000 nM | IC50 [4]: 1700 nM | IC50 ([5]; Homo sapiens, LNCaP, Krebs-Ringer phosphate buffer, 37° C., 30 min of drug treatment, read-out: IC50 in blocking [3H]2-DG uptake into LNCaP cells): 2500 nM | inhibition of [3H]2-DG uptake into LNCaP cells (screening, in words) ([5]; each at 5 μM, 30 min of exposure): substantially improved potency relative to compound 5 | IC50 [6]: ~7500 nM | cytotoxic effect in HMECs [7]: resistant; also recorded: no appreciable cytoxicity; also recorded: no appreciable cytotoxicity | IC50 [8]: ~2500 nM | IC50 [9]: 1500 nM | IC50 [10]: 1600 nM | AMPK phosphorylation [11]: increases | PARP cleavage (apoptosis) [11]: dose-dependent increase | expression of ER stress markers GRP78 and GADD153 [11]: increased expression | expression of KLF6 [11]: increased the expression | expression of cyclin D1, Sp1 and AR [11]: downregulation | levels of p-mTOR and p-p70S6K [11]: concomitant decreases | β-TrCP expression [11]: dose dependently increased | IC50 [12]: ~700 nM | IC50 [13]: ~2500 nM | IC50 [14]: 1900 nM | IC50 [15]: 1500 to 1700 nM
